Conditions: for surface tension liquid-gas: Maximal bubble pressure; for mass density: 101.33 kPa, Liquid

CCCCCC[n+]1ccccc1.[O]=[Re](=[O])(=[O])[O-] [1-hexylpyridinium perrhenate]
Conditions | mass density [kg/m3] | surface tension liquid-gas [mN/m]
293.15 K | 1794.6 | 34.4
298.15 K | 1787 | 34
303.15 K | 1779 | 33.6
308.15 K | 1771.3 | 33.2
313.15 K | 1765 | 33
318.15 K | 1759 | 32.6
323.15 K | 1751.4 | 32.3
328.15 K | 1743.9 | 32
333.15 K | 1738 | 31.8
338.15 K | 1732.3 | 31.5
343.15 K | 1726.9 | 31.1
